From patent publication US20170050957A1, “4-AMINO-6-(HETEROCYCLIC)PICOLINATES AND 6-AMINO-2-(HETEROCYCLIC)PYRIMIDINE-4-CARBOXYLATES AND THEIR USE AS HERBICIDES” (Dow AgroSciences LLC, priority 2013, published 2017)
Where two headings read alike, the source gives them in different places.

What was measured:
[1] = tested on: Key Broadleaf Weed and Crop Species; assay: Post-emergent Test II herbicidal activity (Table 15); format: in vivo; details: post-emergence, 336 h, 14 d; for pest or weed control at 35 g/ha: 35 g ai/ha; for pest or weed control at 70 g/ha: 70 g ai/ha; for pest or weed control at 140 g/ha: 140 g ai/ha
Summary of the method: (§1)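 Visual injury rating (0 = none, 100% = complete kill) made 14 d after treatment, relative to untreated plants. Compounds in an acetone/DMSO/aqueous crop-oil/surfactant spray, at top rate and serial 1/2×-1/16× rates, were applied at 187 L/ha overhead to first-second true leaf plants raised 7-21 d in greenhouse.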

[2] = tested on: Key Grass and Sedge Weeds as well as Grass Crops; assay: Post-emergent Test II herbicidal activity (Table 16); format: in vivo; details: post-emergence, 336 h, 14 d; for pest or weed control at 35 g/ha: 35 g ai/ha; for pest or weed control at 70 g/ha: 70 g ai/ha; for pest or weed control at 140 g/ha: 140 g ai/ha
Summary of the method: as §1

[3] = Abutilon theophrasti, velvetleaf (Abutilon theophrasti), read-out: Visual Growth Reduction (%) 14 Days After Application, ABUTH
[4] = Amaranthus retroflexus, redroot pigweed (Amaranthus retroflexus), read-out: Visual Growth Reduction (%) 14 Days After Application, AMARE
[5] = Brassica napus, oilseed rape, canola (Brassica napus), read-out: Visual Growth Reduction (%) 14 Days After Application, BRSNN
[6] = Chenopodium album, lambsquarters (Chenopodium album), read-out: Visual Growth Reduction (%) 14 Days After Application, CHEAL
[7] = Euphorbia heterophylla, wild poinsettia (Euphorbia heterophylla), read-out: Visual Growth Reduction (%) 14 Days After Application, EPHHL
[8] = Helianthus annuus, sunflower (Helianthus annuus), read-out: Visual Growth Reduction (%) 14 Days After Application, HELAN
[9] = Cyperus esculentus, yellow nutsedge (Cyperus esculentus), read-out: Visual Growth Reduction (%) 14 Days After Application, CYPES
[10] = Echinochloa crus-galli, barnyardgrass (Echinochloa crus-galli), read-out: Visual Growth Reduction (%) 14 Days After Application, ECHCG
[11] = Oryza sativa, rice (Oryza sativa), read-out: Visual Growth Reduction (%) 14 Days After Application, ORYSA
[12] = Setaria faberi, giant foxtail (Setaria faberi), read-out: Visual Growth Reduction (%) 14 Days After Application, SETFA
[13] = Triticum aestivum, wheat, spring (Triticum aestivum), read-out: Visual Growth Reduction (%) 14 Days After Application, TRZAS
[14] = Zea mays, maize, corn (Zea mays), read-out: Visual Growth Reduction (%) 14 Days After Application, ZEAMX

| Structure (SMILES) | melting point [°C] | pest or weed control at 35 g/ha [1, 3] [%] | pest or weed control at 70 g/ha [1, 3] [%] | pest or weed control at 140 g/ha [1, 3] [%] | pest or weed control at 70 g/ha [1, 4] [%] | pest or weed control at 35 g/ha [1, 5] [%] | pest or weed control at 70 g/ha [1, 5] [%] | pest or weed control at 140 g/ha [1, 5] [%] | pest or weed control at 35 g/ha [1, 6] [%] | pest or weed control at 70 g/ha [1, 6] [%] | pest or weed control at 140 g/ha [1, 6] [%] | pest or weed control at 35 g/ha [1, 7] [%] | pest or weed control at 70 g/ha [1, 7] [%] | pest or weed control at 140 g/ha [1, 7] [%] | pest or weed control at 35 g/ha [1, 8] [%] | pest or weed control at 70 g/ha [1, 8] [%] | pest or weed control at 140 g/ha [1, 8] [%] | pest or weed control at 35 g/ha [2, 9] [%] | pest or weed control at 70 g/ha [2, 9] [%] | pest or weed control at 140 g/ha [2, 9] [%] | further results |
| --- | --- | --- | --- | --- | --- | --- | --- | --- | --- | --- | --- | --- | --- | --- | --- | --- | --- | --- | --- | --- | --- |
| COC(=O)c1nc(-c2cccc3[nH]ccc23)c(F)c(N)c1Cl [Compound 1.40] | 233 to 236 | 0 to 29 | 0 to 29 | 0 to 29 | 95 to 100 | 0 to 29 | 0 to 29 | 0 to 29 | 0 to 29 | 0 to 29 | 0 to 29 | 0 to 29 | 0 to 29 | 0 to 29 | 0 to 29 | 30 to 44 | 45 to 59 | 0 to 29 | 0 to 29 | 0 to 29 | pest or weed control at 35 g/ha [2, 10]: 0 to 29%; pest or weed control at 70 g/ha [2, 10]: 0 to 29%; pest or weed control at 140 g/ha [2, 10]: 0 to 29%; pest or weed control at 35 g/ha [2, 11]: 0 to 29%; pest or weed control at 70 g/ha [2, 11]: 0 to 29%; pest or weed control at 140 g/ha [2, 11]: 0 to 29%; pest or weed control at 35 g/ha [2, 12]: 0 to 29%; pest or weed control at 70 g/ha [2, 12]: 0 to 29%; pest or weed control at 140 g/ha [2, 12]: 0 to 29%; pest or weed control at 35 g/ha [2, 13]: 0 to 29%; pest or weed control at 70 g/ha [2, 13]: 0 to 29%; pest or weed control at 140 g/ha [2, 13]: 0 to 29%; pest or weed control at 35 g/ha [2, 14]: 0 to 29%; pest or weed control at 70 g/ha [2, 14]: 0 to 29%; pest or weed control at 140 g/ha [2, 14]: 0 to 29% |
| COC(=O)c1nc(-c2ccc3cc[nH]c3c2)c(Cl)c(N)c1Cl [Compound 1.05] | 174 to 179 | 45 to 59 | 95 to 100 | 85 to 94 | 75 to 84 | 30 to 44 | 45 to 59 | 60 to 74 | 85 to 94 | 95 to 100 | 95 to 100 | 30 to 44 | 30 to 44 | 45 to 59 | 95 to 100 | 95 to 100 | 95 to 100 | 0 to 29 | 0 to 29 | 0 to 29 | pest or weed control at 35 g/ha [1, 4]: 60 to 74%; pest or weed control at 140 g/ha [1, 4]: 95 to 100%; pest or weed control at 35 g/ha [2, 10]: 0 to 29%; pest or weed control at 70 g/ha [2, 10]: 0 to 29%; pest or weed control at 140 g/ha [2, 10]: 60 to 74%; pest or weed control at 35 g/ha [2, 11]: 0 to 29%; pest or weed control at 70 g/ha [2, 11]: 0 to 29%; pest or weed control at 140 g/ha [2, 11]: 0 to 29%; pest or weed control at 35 g/ha [2, 12]: 30 to 44%; pest or weed control at 70 g/ha [2, 12]: 45 to 59%; pest or weed control at 140 g/ha [2, 12]: 60 to 74%; pest or weed control at 35 g/ha [2, 13]: 0 to 29%; pest or weed control at 70 g/ha [2, 13]: 30 to 44%; pest or weed control at 140 g/ha [2, 13]: 45 to 59%; pest or weed control at 35 g/ha [2, 14]: 0 to 29%; pest or weed control at 70 g/ha [2, 14]: 30 to 44%; pest or weed control at 140 g/ha [2, 14]: 45 to 59% |
